According to patent publication US8017594B2, “Agent against psychosocial stresses” (Yamasa Corporation, priority 2006, dated 2011):

System: isolation-reared male ddy mice
Test: Aggressive behavior of isolation-reared (sociopsychological stress) mice
Type: in vivo
Conditions: six weeks after initiation of isolation-rearing, two mice in same cage for 20 minutes, vs solvent
Description: Conceivably, this phenomenon is attributed to the fact that rearing of experimental animals under conditions where social environmental change or social stimuli are absent imposes a kind of sociopsychological stress on the animals (“Mechanism of Sleep,” pp. 52-73 “Stress and Sleep,” Asakura Publishing Co., Ltd. (1997)). In Example 1, anti-stress effects of uridine and GABA (i.e., control) were evaluated through use of this phenomenon. Specifically, isolation-rearing of male ddy mice was initiated at four weeks old, to thereby impose sociopsychological stress (stress caused by isolation-rearing) on the mice. Thus, animal models for evaluation were prepared.
On the basis of this report, the following evaluation was carried out. Specifically, six weeks after initiation of isolation-rearing, two mice were placed in the same cage for 20 minutes, and the time during which aggressive behavior was observed was measured. The effect of uridine or GABA on prolongation of aggressive behavior was evaluated.
A test compound was suspended or dissolved in 0.5% aqueous carboxymethylcellulose solution, and the resultant suspension or solution was orally administered once a day, six days a week, until the end of the experiment.
Mice were divided into four groups. Mice of one group were group-reared and received a solvent. Mice of the other three groups were isolation-reared and received a solvent (100 mg/kg/day), uridine (100 mg/kg/day), and GABA (100 mg/kg/day), respectively. Observation of aggressive behavior was carried out in […] of mice in each group (n=9).
The experiment of Example 1 was repeated, except that the dose of uridine was changed to 10 mg/kg/day, and uridylic acid was administered in place of GABA at a dose of 1 g/kg/day.

[1] = 100 mg/kg/day oral, once a day six days a week

NCCCC(=O)O [GABA, γ-aminobutyric acid, reference compound]
time during which aggressive behavior was observed [1]: significantly reduced

O=c1ccn([C@@H]2O[C@H](CO)[C@@H](O)[C@H]2O)c(=O)[nH]1 [uridine]
time during which aggressive behavior was observed (10 mg/kg/day oral (low-dose)): significantly reduced
time during which aggressive behavior was observed [1]: significantly reduced

O=c1ccn([C@@H]2O[C@H](COP(=O)(O)O)[C@@H](O)[C@H]2O)c(=O)[nH]1 [uridylic acid]
time during which aggressive behavior was observed (1 g/kg/day oral): significantly reduced
